This is an account of results in patent US20260216105A1, “CAPSAICIN EMULSION COMPOSITION, PREPARATION METHOD THEREFOR, AND USE THEREOF” (priority 2022, published 2026).

Converted amounts (≈) assume the structure as drawn.

Holding throughout (type): physicochemical
One data set is described as follows: physchem. Conditions: for solubility at 24 h: 25 °C, thermodynamic from solid. Here is the method: About 3 g of each solvent was weighed according to Table 3, and an excess amount of capsaicin was added. The mixture was placed into a constant-temperature oscillator for oscillation for 24 h (25° C., 200 rpm), and then centrifuged at 10000 rpm for 30 min. The supernatant was taken to measure the capsaicin content. The solubility of CAP in different solvents (different pH buffers, commonly used oil phases, and water-soluble organic solvents) was measured, with the results shown in Table 3: […]

Data set [1] is described as follows: Physical phenomena of active ingredient / water-soluble solvent / water ternary mixtures.
Assay in data set [2]: as above
The conditions noted are these: for mass ratio of water:EtOH (x:1) forming a liquid-liquid phase separation state: both at 0 h and 24 h after standing; for formation of a liquid-liquid phase separation system with ethanol and water: bupivacaine:EtOH 1:2, ropivacaine:EtOH 1:10. Here is the method:
A stock solution was prepared with a mass ratio of CAP:EtOH=1:5. Then, 0.5 g samples of the stock solution were taken and respectively added into PE tubes, and different amounts of water (based on mass ratio of water to CAP) were added according to Table 6. […]
According to the protocols in Examples 4.1-4.3, the physical states of mixtures containing CAP and EtOH (at mass ratios of 1:1, 1:5, and 1:10) and different proportions of water (based on mass ratio of water to CAP) were studied at 0 h and 24 h after standing. […]
A stock solution was prepared with a mass ratio of bupivacaine:EtOH=1:2. Then, 0.5 g samples of the stock solution were taken and respectively added into PE tubes, and different amounts of water (based on ratio of water to bupivacaine) were added according to Table 14. The ternary mixtures were shaken and observed at 0 h and 24 h after standing. […]

Usually solubility stands for the concentration that dissolves in the medium under given conditions. As a reminder, the Solubility is how much of the substance goes into solution per volume. A high value points to much dissolved substance. With `COc1cc(CNC(=O)CCCC/C=C/C(C)C)ccc1O` [CAP, capsaicin], the solubility at 24 h in the data set “physchem” (oil or lipid, Castor oil, shaken at 25° C. for 24 h) was 36000 µg/mL (≈ 118 mM); in “physchem” (oil or lipid, GDO, shaken at 25° C. for 24 h) it was 45000 µg/mL (≈ 147 mM); in the data set “physchem” (oil or lipid, MCT, shaken at 25° C. for 24 h) it was 14000 µg/mL (≈ 45.8 mM); in “physchem” (organic solvent or mixture, DGME, shaken at 25° C. for 24 h), 502000 µg/mL (≈ 1640 mM); in “physchem” (organic solvent or mixture, DMI, shaken at 25° C. for 24 h), above 500000 µg/mL; in “physchem” (organic solvent or mixture, Ethanol, shaken at 25° C. for 24 h), above 500000 µg/mL. Further, the solubility at 24 h is above 500000 µg/mL in the data set “physchem” (organic solvent or mixture, Isopropanol, shaken at 25° C. for 24 h); 367000 µg/mL (≈ 1200 mM) in the data set “physchem” (organic solvent or mixture, PEG200, shaken at 25° C. for 24 h); 290000 µg/mL (≈ 950 mM) in the data set “physchem” (organic solvent or mixture, Propylene glycol, shaken at 25° C. for 24 h); above 250000 µg/mL in “physchem” (organic solvent or mixture, in some water-soluble organic solvents); 45 µg/mL (≈ 0.147 mM) in “physchem” (pH 1, simulated gastric fluid, pH 1.0 hydrochloric acid medium, shaken at 25° C. for 24 h); 52 µg/mL (≈ 0.17 mM) in the data set “physchem” (pH 2, simulated gastric fluid, pH 2.0 hydrochloric acid medium, shaken at 25° C. for 24 h). Further, the solubility at 24 h in the data set “physchem” (pH 3, aqueous buffer, pH 3.0 phosphate medium, shaken at 25° C. for 24 h) came to 44 µg/mL (≈ 0.144 mM); in “physchem” (pH 4, aqueous buffer, pH 4.0 acetate medium, shaken at 25° C. for 24 h) it was 53 µg/mL (≈ 0.174 mM); in “physchem” (pH 5, aqueous buffer, pH 5.0 acetate medium, shaken at 25° C. for 24 h), 52 µg/mL (≈ 0.17 mM); in “physchem” (pH 6, aqueous buffer, pH 6.0 phosphate medium, shaken at 25° C. for 24 h) it was 46 µg/mL (≈ 0.151 mM); in the data set “physchem” (pH 7, aqueous buffer, pH 7.0 phosphate medium, shaken at 25° C. for 24 h), 45 µg/mL (≈ 0.147 mM); in the data set “physchem” (pH 8, aqueous buffer, pH 8.0 phosphate medium, shaken at 25° C. for 24 h), 42 µg/mL (≈ 0.138 mM). For the same compound, the solubility at 24 h in the data set “physchem” (pH 9, aqueous buffer, pH 9.0 carbonate medium, shaken at 25° C. for 24 h) came out at 53 µg/mL (≈ 0.174 mM); in “physchem” (pH 10, aqueous buffer, pH 10.0 carbonate medium, shaken at 25° C. for 24 h), 102 µg/mL (≈ 0.334 mM). The Solubility was 5000 µg/mL (≈ 16.4 mM) in the data set “physchem” (Corn oil, shaken at 25° C. for 24 h); 5000 µg/mL (≈ 16.4 mM) in the data set “physchem” (Peanut oil, shaken at 25° C. for 24 h); 5000 µg/mL (≈ 16.4 mM) in the data set “physchem” (Rapeseed oil, shaken at 25° C. for 24 h). Further, in data set [1] (CAP:DGME 1:1), the “mass ratio of water:DGME (x:1) forming a liquid-liquid phase separation system” value was 1-2. In addition, in data set [1] (CAP:DMI 1:3), the “mass ratio of water:DMI (x:1) forming a liquid-liquid phase separation system” value is reported as 0.3-2. The “mass ratio of water:IPA (x:1) forming a liquid-liquid phase separation system” value in data set [1] (CAP:IPA 1:1) is recorded as 0.5-2. In addition, the “mass ratio of water:EtOH (x:1) forming a liquid-liquid phase separation state” value in data set [2] (CAP:EtOH 1:1) was 0.65-2; in data set [2] (CAP:EtOH 1:5) it was 1-2.2; in data set [2] (CAP:EtOH 1:10), 1.4-2.5. The “formation of a liquid-liquid phase separation system with PEG200 and water” value in data set [2] (CAP:PEG200 1:3) was “could not form a liquid-liquid phase separation system”; in data set [2] (CAP:PEG200 1:5 (increased mass of PEG200)), “failed to enable the formation of a liquid-liquid phase separation system”. For the same compound, the “formation of a liquid-liquid phase separation system with propylene glycol and water” value in data set [2] (CAP:propylene glycol 1:5) was “failed to form a liquid-liquid phase separation system”.
In the case of `CCCCN1CCCCC1C(=O)Nc1c(C)cccc1C` (stereo not shown) [bupivacaine], the “formation of a liquid-liquid phase separation system with ethanol and water” value in data set [2] is “failed to form a liquid-liquid phase separation system”.
On to `CCCN1CCCC[C@H]1C(=O)Nc1c(C)cccc1C` [ropivacaine], for which the “formation of a liquid-liquid phase separation system with ethanol and water” value in data set [2] is reported as “failed to form a liquid-liquid phase separation system”.
